row,SMILES,melting point [°C]
1,"Fc1ccccc1-c1c(OCc2cscn2)nn2c(-c3ccccc3F)nncc12 [Example 73, 3,7-bis(2-Fluorophenyl)-2-(thiazol-4-ylmethoxy)pyrazolo[1,5-d][1,2,4]triazine]",212
2,"CC(C)n1ncnc1COc1nn2c(-c3ccccc3F)nncc2c1-c1ccccc1F [Example 74, 3,7-bis(2-Fluorophenyl)-2-(2-isopropyl-2H-[1,2,4]triazol-3-ylmethoxy)-pyrazolo[1,5-d][1,2,4]triazine]",179
3,"Fc1ccccc1-c1c(OCc2cccnn2)nn2c(-c3ccccc3F)nncc12 [Example 76, 3,7-bis(2-Fluorophenyl)-2-(pyridazin-3-ylmethoxy)pyrazolo[1,5-d][1,2,4]triazine]",210
4,"Fc1ccccc1-c1c(OCc2ccncn2)nn2c(-c3ccccc3F)nncc12 [Example 78, 3,7-bis(2-Fluorophenyl)-2-(pyrimidin-4-ylmethoxy)pyrazolo[1,5-d][1,2,4]triazine]",189
5,"Fc1ccccc1-c1c(OCc2cnc3ccccc3n2)nn2c(-c3ccccc3F)nncc12 [Example 79, 3,7-bis(2-Fluorophenyl)-2-(quinoxalin-2-ylmethoxy)pyrazolo[1,5-d][1,2,4]triazine]",209
6,"Cn1ncnc1COc1nn2c(-c3ccoc3)nncc2c1-c1ccccc1F [Example 80, 3-(2-Fluorophenyl)-7-(furan-3-yl)-2-(2-methyl-2H-[1,2,4]triazol-3-ylmethoxy)pyrazolo[1,5-d][1,2,4]triazine]",148
7,"Cn1c(COc2nn3c(-c4ccccc4F)nncc3c2-c2ccccc2F)nc2ccccc21 [Example 81, 3,7-bis(2-Fluorophenyl)-2-(1-methyl-1H-benzimidazol-2-ylmethoxy)pyrazolo[1,5-d][1,2,4]triazine]",218 to 220
8,"Fc1ccccc1-c1c(OCc2nc3ccccn3n2)nn2c(-c3ccccc3F)nncc12 [Example 82, 3,7-bis(2-Fluorophenyl)-2-([1,2,4]triazolo[1,5-a]pyridin-2-ylmethoxy)pyrazolo[1,5-d][1,2,4]triazine]",208 to 209
9,"Fc1ccccc1-c1c(OCc2nc3n(n2)CCCC3)nn2c(-c3ccccc3F)nncc12 [Example 83, 3,7-bis(2-Fluorophenyl)-2-(5,6,7,8-tetrahydro[1,2,4]triazolo[1,5-a]pyridin-2-ylmethoxy)pyrazolo[1,5-d][1,2,4]triazine]",150 to 152
10,"Fc1ccccc1-c1c(OCc2ncnn2CC(F)F)nn2c(-c3ccccc3F)nncc12 [Example 85, 2-[2-(2,2-Difluoroethyl)-2H-[1,2,4]triazol-3-ylmethoxy]-3,7-bis(2-fluorophenyl)pyrazolo[1,5-d][1,2,4]triazine]",179 to 180
11,"FCCn1ncnc1COc1nn2c(-c3ccccc3F)nncc2c1-c1ccccc1F [Example 86, 2-[2-(2-Fluoroethyl)-2H-[1,2,4]triazol-3-ylmethoxy]-3,7-bis(2-fluorophenyl)-pyrazolo[1,5-d][1,2,4]triazine]",172 to 173
12,"Cn1ncnc1COc1nn2c(-c3ccccc3Cl)nncc2c1-c1ccccc1F [Example 88, 7-(2-Chlorophenyl)-3-(2-fluorophenyl)-2-(2-methyl-2H-[1,2,4]triazol-3-ylmethoxy)pyrazolo[1,5-d][1,2,4]triazine]",155 to 157
13,"Cn1ncnc1COc1nn2c(C3CC3)nncc2c1-c1ccccc1F [Example 89, 7-Cyclopropyl-3-(2-fluorophenyl)-2-(2-methyl-2H-[1,2,4]triazol-3-ylmethoxy)pyrazolo[1,5-d][1,2,4]triazine]",97 to 99
14,"Cc1cc(COc2nn3c(-c4ccccc4F)nncc3c2-c2ccccc2F)nn1C [Example 90, 3,7-bis(2-Fluorophenyl)-2-(1,5-dimethyl-1H-pyrazol-3-ylmethoxy)-pyrazolo[1,5-d][1,2,4]triazine]",183
15,"CCn1ncnc1COc1nn2c(-c3ccccc3F)nncc2c1-c1ccco1 [Example 91, 2-(2-Ethyl-2H-[1,2,4]triazol-3-ylmethoxy)-7-(2-fluorophenyl)-3-(furan-2-yl)pyrazolo[1,5-d][1,2,4]triazine]",182 to 183
16,"CCn1ncnc1COc1nn2c(-c3ccccc3F)nncc2c1-c1cccs1 [Example 92, 2-(2-Ethyl-2H-[1,2,4]triazol-3-ylmethoxy)-7-(2-fluorophenyl)-3-(thien-2-yl)pyrazolo[1,5-d][1,2,4]triazine]",190 to 192
17,"CCn1ncnc1COc1nn2c(-c3ccccc3F)nncc2c1-c1ccsc1 [Example 93, 2-(2-Ethyl-2H-[1,2,4]triazol-3-ylmethoxy)-7-(2-fluorophenyl)-3-(thien-3-yl)pyrazolo[1,5-d][1,2,4]triazine]",187 to 193
18,"Cn1ncnc1COc1nn2c(-c3ccccc3F)nncc2c1-c1cccc(-c2cccnc2)c1 [Example 95, 7-(2-Fluorophenyl)-2-(2-methyl-2H-[1,2,4]triazol-3-ylmethoxy)-3-[3-(pyridin-3-yl)phenyl]pyrazolo[1,5-d][1,2,4]triazine]",157 to 163
19,"Cn1ncnc1COc1nn2c(-c3ccccc3F)nncc2c1I [Example 96, 7-(2-Fluorophenyl)-3-iodo-2-(2-methyl-2H-[1,2,4]triazol-3-ylmethoxy)-pyrazolo[1,5-d][1,2,4]triazine]",218 to 219
20,"Cn1ncnc1COc1nn2c(-c3ccccc3F)nncc2c1-c1cccc(C#N)c1 [Example 97, 3-(3-Cyanophenyl)-7-(2-fluorophenyl)-2-(2-methyl-2H-[1,2,4]triazol-3-ylmethoxy)pyrazolo[1,5-d][1,2,4]triazine]",194 to 196

# — patent US6476030B1, “Pyrazolo-triazine derivatives as ligands for GABA receptors” (Merck Sharp & Dohme Ltd., priority 1998, dated 2002)
